Consider 12 molecules from patent publication US8697641B2, “4-amino-4-oxobutanoyl peptide cyclic analogues, inhibitors of viral replication” (Achillion Pharmaceuticals, Inc., priority 2008, dated 2014).

This test concerns Hepatitis C replicon. The experiment in a line: HCV replicon assay (NPT ELISA readout) in Huh-7 replicon-containing cells. In kind it is cell-based, Hepatitis C virus. The following applies: HCV replicon in Huh-7 cells, three days incubation. As for the experimental part: Compounds claimed herein are tested for the ability to inhibit viral replication of the Hepatitis C replicon in cultured cells in which the HCV replicon construct has been incorporated. The HCV replicon system was described by Bartenschlager, et. al (Science, 285, pp. 110-113 (1999)). The replicon system is predictive of in vivo anti-HCV activity; compounds that are active in humans uniformly evidence activity in the replicon assay.
In this assay HCV replicon containing cells are treated with different concentrations of the test compound to ascertain the ability of the test compound to suppress replication of the HCV replicon. As a positive control, HCV replicon-containing cells are treated with different concentrations of interferon alpha, a known inhibitor of HCV replication. The replicon assay system includes Neomycin Phosphotransferase (NPT) as a component of the replicon itself in order to detect the transcription of replicon gene products in the host cell. Cells in which the HCV replicon is actively replicating have high levels of NPT; the level of NPT is proportional to HCV replication. […] The NPT level of each sample is measured using a captured ELISA.
A protocol for testing compounds for the ability to inhibit viral replication of the Hepatitis C replicon cultured cells in which the replicon construct has been incorporated, follows.
The HCV replicon contains, 5′-3′, the HCV-IRES, the neomycin phosphotransferase (neo) gene, the IRES of encephalomyocarditis virus, which directs translation of HCV sequences NS3 to NS5B, and the 3′-NTR. The sequence of the HCV replicon has been deposited in GenBank (Accession no. AJ242652).
The replicon is transfected into Huh-7 cells using standard methods such as electroporation.
The equipment and materials include, but are not limited to, Huh-7 HCV replicon-containing cells, maintenance media (DMEM (Dulbecco's modified Eagle media) supplemented with 10% FBS, L-glutamine, non-essential amino acids, penicillin (100 units/ml), streptomycin (100 micrograms/ml), and 500 micrograms/ml of Geneticin (G418), screening media (DMEM supplemented with 10% FBS, L-glutamine, non-essential amino acids, penicillin (100 units/ml) and streptomycin (100 micrograms/ml)), 96 well tissue culture plates (flat bottom), 96 well plates (U bottom for drug dilution), Interferon alpha for positive control, fixation reagent (such as methanol:acetone), primary antibody (rabbit anti-NPTII), secondary antibody: Eu-N1 l, and enhancement solution.
The cells are then seeded onto 96-well plates at a density of 6000-7500 cells/100 microliters/well (6-7.5×10^5 cells/10 ml/plate). The plates are then incubated at 37° C. in a 5% CO2 incubator.
HCV replicon-containing cells are rinsed with once PBS once; 2 mls of trypsin are then added. Cells are incubated at 37° C. in a 5% CO2 incubator for 3-5 minutes. 10 mls of complete medium is added to stop the reaction. Cells are blown gently, put into a 15 ml tube, and spun at 1200 rpm for four minutes. The trypsin/medium solution is removed and 5 mls of medium (500 ml DMEM (high glucose)) from BRL catalog #12430-054; 50 mls 10% FBS, 5% Geneticin G418 (50 mg/ml, BRL catalog #10131-035), 5 ml MEM non-essential amino acids (100×BRL #11140-050) and 5 ml pen-strep (BRL #15140-148) is added. The cells and media are mixed carefully
Cells are plated with screening medium (500 ml DMEM (BRL #21063-029), 50 ml FBS (BRL #10082-147) and 5 ml MEM non-essential amino acid (BRL #11140-050) at 6000-7500 fcells/100 μl/well of 96 well plate (6-7.5×10^5 cells/10 ml/plate). Plates are placed into 37° C. 5% CO2 incubator overnight.
The following morning, drugs (test compounds or interferon alpha) are diluted in 96 well U bottom plates with media or DMSO/media, depending on the final concentration chosen for screening. Generally for 6 concentrations of each test compounds ranging from 10 micromolar to 0.03 micromolar are applied. […]
For orientation: A replicon is a self-replicating genome or part of one, used to study replication in cells.

The EC50 is the concentration giving half of the maximal effect. A high value points to a need for much substance. For the molecule `CCOC(=O)C12CC1/C=C\CCCCC[C@@H](CC(=O)N1CCCCC1)C(=O)N1C[C@H](Oc3cc(-c4ccccc4)nc4cc(OC)ccc34)C[C@H]1C(=O)N2` (stereo partly drawn) [Compound 42, (2R,6S,16aS,Z)-ethyl 2-(7-methoxy-2-phenylquinolin-4-yloxy)-5,16-dioxo-6-(2-oxo-2-(piperidin-1-yl)ethyl)-1,2,3,5,6,7,8,9,10,11, 13a,14,14a,15,16,16a-hexadecahydrocyclopropa [e]pyrrolo[1,2-a][1,4] diazacyclopentadecine-14a-carboxylate], where the note is “Hepatitis C virus, 72 h”, the EC50 was 1 to 10 µM.

Take `COc1ccc2c(O[C@@H]3C[C@H]4C(=O)NC5(C(=O)O)CC5/C=C\CCCCC[C@@H](CC(=O)N5CCCCC5)C(=O)N4C3)cc(-c3ccccc3)nc2c1` (stereo partly drawn) [Compound 43, (2R,6S,16aS,Z)-2-(7-methoxy-2-phenylquinolin-4-yloxy)-5,16-dioxo-6-(2-oxo-2-(piperidin-1-yl)ethyl)-1,2,3,5,6,7,8,9,10,11, 13a,14,14a,15,16,16a-hexadecahydrocyclopropa [e]pyrrolo[1,2-a][1,4] diazacyclopentadecine-14a-carboxylic acid]: the 50% effective concentration (EC50) (Hepatitis C virus, 72 h) is 1 to 10 µM. On the same count and under the same terms, in the case of `COc1ccc2c(O[C@@H]3C[C@H]4C(=O)N[C@]5(C(=O)O)C[C@H]5/C=C\CCCCC[C@H](CC(=O)N5CCCCC5)C(=O)N4C3)cc(-c3ccccc3)nc2c1` [Compound 44, (2R,6R,13aS,14aR, 16aS,Z)-2-(7-methoxy-2-phenylquinolin-4-yloxy)-5,16-dioxo-6-(2-oxo-2-(piperidin-1-yl)ethyl)-1,2,3,5,6,7,8,9,10,11, 13a,14,14a,15,16,16a-hexadecahydrocyclopropa [e]pyrrolo[1,2-a][1,4] diazacyclopentadecine-14a-carboxylic acid] it was above 10 µM; in that of `CCOC(=O)[C@@]12C[C@H]1/C=C\CCCCC[C@H](CC(=O)N1CCCCC1)C(=O)N1C[C@H](Oc3cc(-c4ccccc4)nc4cc(OC)ccc34)C[C@H]1C(=O)N2` [Compound 45, (2R,6R,13aS,14aR, 16aS,Z)-ethyl 2-(7-methoxy-2-phenylquinolin-4-yloxy)-5,16-dioxo-6-(2-oxo-2-(piperidin-1-yl)ethyl)-1,2,3,5,6,7,8,9,10,11, 13a,14,14a,15,16,16a-hexadecahydrocyclopropa [e]pyrrolo[1,2-a][1,4] diazacyclopentadecine-14a-carboxylate], above 10 µM. On the same count and under the same terms, then `CCOC(=O)[C@@]12C[C@H]1/C=C\CCCCC[C@H](CC(=O)OC(C)(C)C)C(=O)N1C[C@H](Oc3cc(-c4ccccc4)nc4cc(OC)ccc34)C[C@H]1C(=O)N2` [Compound 46, (2R,6R,13aS,14aR, 16aS,Z)-ethyl 6-(2-tert-butoxy-2-oxoethyl)-2-(7-methoxy-2-phenylquinolin-4-yloxy)-5,16-dioxo-1,2,3,5,6,7,8,9,10,11, 13a,14,14a,15,16,16a-hexadecahydrocyclopropa [e]pyrrolo[1,2-a][1,4] diazacyclopentadecine-14a-carboxylate], with above 10 µM. For the setting “Hepatitis C virus, 72 h”, `CCOC(=O)[C@]12C[C@@H]1/C=C\CCCCC[C@H](CC(=O)OC(C)(C)C)C(=O)N1C[C@H](Oc3cc(-c4ccccc4)nc4cc(OC)ccc34)C[C@H]1C(=O)N2` [Compound 47, (2R,6R,13aR,14aS, 16aS,Z)-ethyl 6-(2-tert-butoxy-2-oxoethyl)-2-(7-methoxy-2-phenylquinolin-4-yloxy)-5,16-dioxo-1,2,3,5,6,7,8,9,10,11, 13a,14,14a,15,16,16a-hexadecahydrocyclopropa [e]pyrrolo[1,2-a][1,4] diazacyclopentadecine-14a-carboxylate] registered an EC50 below 1 µM. `COc1ccc2c(O[C@@H]3C[C@H]4C(=O)N[C@]5(C(=O)NS(=O)(=O)C6CC6)C[C@H]5/C=C\CCCCC[C@H](CC(=O)N5CCCCC5)C(=O)N4C3)cc(-c3ccccc3)nc2c1` [Compound 48, (2R,6R,13aS, 14aR,16aS,Z)-N-(cyclopropylsulfonyl)-2-(7-methoxy-2-phenylquinolin-4-yloxy)-5,16-dioxo-6-(2-oxo-2-(piperidin-1-yl)ethyl)-1,2,3,5,6,7,8,9,10,11, 13a,14,14a,15,16,16a-hexadecahydrocyclopropa [e]pyrrolo[1,2-a][1,4] diazacyclopentadecine-14a-carboxamide]: the EC50 (Hepatitis C virus, 72 h) was 1 to 10 µM. On the same count and under the same terms, in the case of `COc1ccc2c(O[C@@H]3C[C@H]4C(=O)N[C@@]5(C(=O)NS(=O)(=O)C6CC6)C[C@@H]5/C=C\CCCCC[C@H](CC(=O)N5CCCCC5)C(=O)N4C3)cc(-c3ccccc3)nc2c1` [Compound 49, (2R,6R,13aR, 14aS,16aS,Z)-N-(cyclopropylsulfonyl)-2-(7-methoxy-2-phenylquinolin-4-yloxy)-5,16-dioxo-6-(2-oxo-2-(piperidin-1-yl)ethyl)-1,2,3,5,6,7,8,9,10,11, 13a,14,14a,15,16,16a-hexadecahydrocyclopropa [e]pyrrolo[1,2-a][1,4] diazacyclopentadecine-14a-carboxamide] it was 1 to 10 µM; in that of `O=C1NC2(C(=O)NS(=O)(=O)C3CC3)CC2/C=C\CCCCC[C@H](CC(=O)N2CCCCC2)C(=O)N2C[C@H](OC(=O)N3Cc4cccc(F)c4C3)C[C@@H]12` (stereo partly drawn) [Compound 50, (2R,6R,16aS,Z)-14a-(cyclopropylsulfonyl-carbamoyl)-5,16-dioxo-6-(2-oxo-2-(piperidin-1-yl)ethyl)-1,2,3,5,6,7,8,9,10,11, 13a,14,14a,15,16,16a-hexadecahydrocyclopropa [e]pyrrolo[1,2-a][1,4] diazacyclopentadecin-2-yl 4-fluoroisoindoline-2-carboxylate], below 1 µM.

`COc1ccc2c(O[C@@H]3C[C@H]4C(=O)N[C@]5(C(=O)NS(=O)(=O)C6CC6)C[C@H]5CCCCCCC[C@H](CC(=O)N5CCCCC5)C(=O)N4C3)cc(-c3ccccc3)nc2c1` [Compound 51, (2R,6R,13aR, 14aR,16aS)-N-(cyclopropylsulfonyl)-2-(7-methoxy-2-phenylquinolin-4-yloxy)-5,16-dioxo-6-(2-oxo-2-(piperidin-1-yl)ethyl) octadecahydrocyclopropa [e]pyrrolo[1,2-a][1,4] diazacyclopentadecine-14a-carboxamide] yielded an EC50 below 1 µM. Same read-out and setting: then `COc1ccc2c(O[C@@H]3C[C@H]4C(=O)N[C@H](C(=O)NS(=O)(=O)C5CC5)CCCCCCCCC[C@H](CC(=O)N5CCCCC5)C(=O)N4C3)cc(-c3ccccc3)nc2c1` [Compound 52, (3S,13R,17R,18aS)-N-(cyclopropylsulfonyl)-17-(7-methoxy-2-phenylquinolin-4-yloxy)-1,14-dioxo-13-(2-oxo-2-(piperidin-1-yl)ethyl) octadecahydropyrrolo [1,2-a][1,4] diazacyclohexadecine-3-carboxamide], with 1 to 10 µM. For the setting “Hepatitis C virus, 72 h”, `COc1ccc2c(O[C@@H]3C[C@H]4C(=O)N[C@H](C(=O)NS(=O)(=O)C5CC5)[C@@H](C)CCCCCCC[C@H](CC(=O)N5CCCCC5)C(=O)N4C3)cc(-c3ccccc3)nc2c1` [Compound 53, (3S,4S,12R,16R,17aS)-N-(cyclopropylsulfonyl)-16-(7-methoxy-2-phenylquinolin-4-yloxy)-4-methyl-1,13-dioxo-12-(2-oxo-2-(piperidin-1-yl)ethyl)hexadecahydro-1H-pyrrolo[1,2-a][1,4] diazacyclopentadecine-3-carboxamide] showed a 50% effective concentration (EC50) of 1 to 10 µM.
